From patent US9227977B2, “Phosphoinositide 3-kinase inhibitors” (RESPIVERT LTD., priority 2013, dated 2016)
pIC50: −log10 of the molar value. Where two headings read alike, the source gives them in different places. Blank lines part the entries; values can stand above or below the molecule they belong to.

Legend:
PI3K α = PI3K α (Homo sapiens (Human), UniProt P42336); experiment: PI3K enzyme inhibition assay (HTRF TR-FRET); format: biochemical
Source text: (§1) The PI3K enzymes catalyse the phosphorylation of phosphatidylinositol 4,5-biphosphate (PIP2) to phosphatidylinositol 3,4,5-triphosphate (PIP3) in the presence of ATP and Mg^2+ ions. The PIP3 product can be detected by displacement of biotin-PIP3 from energy transfer complexes consisting of europium labelled anti-GST monoclonal antibody, a GST-tagged Pleckstrin homology (PH) domain, biotinylated PIP3 and streptavidin-allophycocyanin (APC) by the time-resolved fluorescence resonance energy transfer (TR-FRET) (HTRF®PI3K enzyme assay, Millipore). Excitation, at 330 nm, of europium in the complex results in an energy transfer to the APC and a fluorescent emission at 665 nm although europium itself emits at its characteristic wavelength of 620 nm. The PIP3 product formed by PI3K activity displaces biotin-PIP3 from the complex and results in a loss of energy transfer (decreasing signal).
(§2) The compound to be tested was added, at the desired final concentrations, to a mixture of PIP2 substrate and a recombinant PI3K enzyme (either α, β or δ isoforms, ex Millipore, or γ isoform [p110γ+p101 construct], ex United States Biological, Swampscott, Mass.) and the mixture incubated for 2 hr at RT. […] A stopping solution containing biotinylated PIP3 and the detection mix containing the GST tagged GRP1 pleckstrin homology (PH) domain and fluorophores were then added and the mixture was incubated at RT for 15-18 hr, prior to detection in a fluorescence microplate reader (Synergy 4, BioTek UK, Bedfordshire, UK).
(§3) The results were calculated according to the formula: APC signal (emission at 665 nm)/europium signal (emission at 620 nm)×10^4.

PI3K γ = PI3K γ (Homo sapiens (Human), UniProt P48736); experiment: PI3K enzyme inhibition assay (HTRF TR-FRET); format: biochemical
Source text: as §1, §2, §3

PI3K δ = PI3K δ (Homo sapiens (Human), UniProt O00329); experiment: PI3K enzyme inhibition assay (HTRF TR-FRET); format: biochemical
Source text: as §1, §2, §3

PI3K β = PI3K β (Homo sapiens (Human), UniProt P42338); experiment: PI3K enzyme inhibition assay (HTRF TR-FRET); format: biochemical; settings: read-out: PI3 Kinase Inhibition IC50 value at state isozyme, β
Source text: as §1
The compound to be tested was added, at the desired final concentrations, to a mixture of PIP2 substrate and a recombinant PI3K enzyme (either α, β or δ isoforms, ex Millipore, or γ isoform [p110γ+p101 construct], ex United States Biological, Swampscott, Mass.) and the mixture incubated for 2 hr at RT. Following this incubation period, ATP (10 μM) was added to the enzyme/compound/PIP2 substrate mixture and the resulting mixture was incubated for a further 30 min at RT. A stopping solution containing biotinylated PIP3 and the detection mix containing the GST tagged GRP1 pleckstrin homology (PH) domain and fluorophores were then added and the mixture was incubated at RT for 15-18 hr, prior to detection in a fluorescence microplate reader (Synergy 4, BioTek UK, Bedfordshire, UK).
The results were calculated according to the formula: APC signal (emission at 665 nm)/europium signal (emission at 620 nm)×10^4. The percentage inhibition of each reaction was calculated relative to DMSO treated control, and the 50% inhibitory concentration (IC50 value) then calculated from the concentration-response curve.

d-U937 cells = experiment: MTT assay, cell viability; format: cell-based, human; settings: 10 μg/mL
Description: PMA-differentiated U937 cells were pre-incubated with test compound (10 μg/mL) or vehicle for 4 hr in 5% FCS or 10% FCS for 24 hr. The supernatant was replaced with new media (200 μL) and MTT stock solution (10 μL, 5 mg/mL) was added to each well. After 1 hr incubation, the media were removed, 200 μL of DMSO was added to each well and the plates were shaken lightly for 1 hr prior to reading the absorbance at 550 nm. The percentage loss of cell viability was calculated for each well relative to vehicle (0.5% DMSO)-treatment.

[1] = tested on: cigarette smoke-induced cell accumulation and biomarkers in murine BALF; experiment: Cigarette smoke model; format: in vivo, mouse; settings: 0.3-10 mg/kg, p.o.
[2] = tested on: cigarette smoke-induced cell accumulation and biomarkers in murine BALF; experiment: Cigarette smoke model; format: in vivo, mouse; settings: dose used for co-administration
Description: A/J mice (males, 5 weeks old) were exposed to cigarette smoke (4% cigarette smoke, diluted with compressed air) for 30 min/day for 11 days using a Tobacco Smoke Inhalation Experiment System for small animals (Model SIS-CS; Sibata Scientific Technology, Tokyo, Japan). Test substances were administered once daily for 3 days after the final cigarette smoke exposure (intra-nasal dose comprising 35 μL of solution in 50% DMSO/isotonic saline).
At 12 hr after administration of the last dose, animals were anesthetized, the trachea was cannulated and bronchial alveolar lavage (BAL) was carried out by the instillation into and then withdawal from the lungs, of PBS (100 mL/kg). Total cell numbers in the BALF samples were measured using a haemocytometer under a phase-contrast microscope. The proportions of alveolar macrophages and neutrophils were determined by FACS analysis using anti-mouse MOMA2-FITC (macrophage) or anti-mouse 7/4 (neutrophil).
Cells were suspended in PBS and were incubated with anti-MOMA2-FITC (2 μg/mL, Catalogue no SM065F, Acris Antibodies GmbH, Herford, Germany) or anti-7/4-FITC (2 μg/mL, Catalogue no CL050F, Acris Antibodies GmbH, Herford, Germany) for 30 min at 30° C., and also counterstained with propidium iodide (2 μg/mL) to allow exclusion of necrotic cells. The cells were washed with PBS, and transferred to FACS tubes. Samples was set in a flow cytometer (ALTRA II; Beckman Coulter Japan, Tokyo, Japan), and a single-parameter FL2 [PMT2] (FITC) histogram with log x-axis was plotted to illustrate relative intensity of FITC.
Data files are stored for subsequent analysis using Kaluza analysis software (ver. 1.2) to calculate the proportion of each cell type. The levels of CXCL1(KC), MCP1, TNFα, IL-17 or osteopontin in BALF were determined using Quentikine® mouse KC, MCP1, TNFα, IL-17 or osteopontin ELISA kit (R&D systems, Inc., Minneapolis, Minn., USA). The presence of malondialdehyde was measured using OxiSelect® TBARS Assay Kit (MDA Quantitation; Cell Biolabs Inc, San Diego, Calif., USA).

Sequence of PI3K γ (P48736 whole entry, species assumed): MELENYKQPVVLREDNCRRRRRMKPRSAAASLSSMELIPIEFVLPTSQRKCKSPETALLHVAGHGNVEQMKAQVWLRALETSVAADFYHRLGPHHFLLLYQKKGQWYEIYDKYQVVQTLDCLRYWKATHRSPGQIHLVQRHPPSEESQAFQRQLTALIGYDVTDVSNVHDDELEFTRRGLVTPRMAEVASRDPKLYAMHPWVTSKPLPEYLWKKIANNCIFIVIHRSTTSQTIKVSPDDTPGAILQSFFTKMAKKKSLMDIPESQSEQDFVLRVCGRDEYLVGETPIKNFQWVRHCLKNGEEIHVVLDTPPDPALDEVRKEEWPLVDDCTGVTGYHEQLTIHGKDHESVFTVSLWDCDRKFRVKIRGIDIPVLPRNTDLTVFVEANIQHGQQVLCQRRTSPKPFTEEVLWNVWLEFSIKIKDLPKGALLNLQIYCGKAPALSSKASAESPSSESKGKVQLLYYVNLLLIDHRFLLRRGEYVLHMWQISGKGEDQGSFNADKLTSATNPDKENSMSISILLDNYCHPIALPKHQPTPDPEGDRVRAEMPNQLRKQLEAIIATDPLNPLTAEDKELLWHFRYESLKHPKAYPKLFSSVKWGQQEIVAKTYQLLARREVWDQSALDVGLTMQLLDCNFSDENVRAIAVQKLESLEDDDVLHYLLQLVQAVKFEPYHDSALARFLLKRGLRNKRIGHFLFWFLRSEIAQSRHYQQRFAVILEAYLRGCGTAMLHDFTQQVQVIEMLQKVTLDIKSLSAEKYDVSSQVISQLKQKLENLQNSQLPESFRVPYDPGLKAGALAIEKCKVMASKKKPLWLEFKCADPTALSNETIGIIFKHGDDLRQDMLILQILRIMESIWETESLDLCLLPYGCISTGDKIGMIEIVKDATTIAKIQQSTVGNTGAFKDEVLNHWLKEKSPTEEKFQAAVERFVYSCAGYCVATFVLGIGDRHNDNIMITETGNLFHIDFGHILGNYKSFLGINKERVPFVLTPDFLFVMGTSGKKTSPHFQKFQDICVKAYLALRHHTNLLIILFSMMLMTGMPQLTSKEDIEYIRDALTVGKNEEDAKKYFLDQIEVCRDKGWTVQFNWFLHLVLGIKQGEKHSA
Sequence of PI3K γ (Q8WYR1 whole entry partner, species assumed): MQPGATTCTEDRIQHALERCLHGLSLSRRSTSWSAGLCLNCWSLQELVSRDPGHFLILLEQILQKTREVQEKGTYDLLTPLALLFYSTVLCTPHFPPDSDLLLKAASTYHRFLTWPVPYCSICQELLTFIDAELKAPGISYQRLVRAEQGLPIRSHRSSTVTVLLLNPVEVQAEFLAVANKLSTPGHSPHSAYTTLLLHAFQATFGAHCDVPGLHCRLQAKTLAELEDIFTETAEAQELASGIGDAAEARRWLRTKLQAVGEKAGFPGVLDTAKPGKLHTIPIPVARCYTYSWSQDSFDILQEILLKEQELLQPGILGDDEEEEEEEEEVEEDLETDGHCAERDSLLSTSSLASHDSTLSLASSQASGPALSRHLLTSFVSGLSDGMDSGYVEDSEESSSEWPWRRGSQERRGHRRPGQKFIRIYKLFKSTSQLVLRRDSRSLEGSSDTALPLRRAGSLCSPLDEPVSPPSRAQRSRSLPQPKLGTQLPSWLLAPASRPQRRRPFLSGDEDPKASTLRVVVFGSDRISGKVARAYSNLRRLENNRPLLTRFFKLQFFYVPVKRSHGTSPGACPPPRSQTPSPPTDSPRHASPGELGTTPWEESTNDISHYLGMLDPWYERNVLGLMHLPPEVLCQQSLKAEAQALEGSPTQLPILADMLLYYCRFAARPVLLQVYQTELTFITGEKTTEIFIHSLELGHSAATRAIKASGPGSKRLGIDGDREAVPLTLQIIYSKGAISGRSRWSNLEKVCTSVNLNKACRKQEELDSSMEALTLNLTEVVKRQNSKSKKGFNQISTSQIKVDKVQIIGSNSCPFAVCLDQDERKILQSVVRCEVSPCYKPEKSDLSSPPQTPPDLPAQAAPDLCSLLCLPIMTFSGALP
Sequence of PI3K δ (O00329 whole entry, species assumed): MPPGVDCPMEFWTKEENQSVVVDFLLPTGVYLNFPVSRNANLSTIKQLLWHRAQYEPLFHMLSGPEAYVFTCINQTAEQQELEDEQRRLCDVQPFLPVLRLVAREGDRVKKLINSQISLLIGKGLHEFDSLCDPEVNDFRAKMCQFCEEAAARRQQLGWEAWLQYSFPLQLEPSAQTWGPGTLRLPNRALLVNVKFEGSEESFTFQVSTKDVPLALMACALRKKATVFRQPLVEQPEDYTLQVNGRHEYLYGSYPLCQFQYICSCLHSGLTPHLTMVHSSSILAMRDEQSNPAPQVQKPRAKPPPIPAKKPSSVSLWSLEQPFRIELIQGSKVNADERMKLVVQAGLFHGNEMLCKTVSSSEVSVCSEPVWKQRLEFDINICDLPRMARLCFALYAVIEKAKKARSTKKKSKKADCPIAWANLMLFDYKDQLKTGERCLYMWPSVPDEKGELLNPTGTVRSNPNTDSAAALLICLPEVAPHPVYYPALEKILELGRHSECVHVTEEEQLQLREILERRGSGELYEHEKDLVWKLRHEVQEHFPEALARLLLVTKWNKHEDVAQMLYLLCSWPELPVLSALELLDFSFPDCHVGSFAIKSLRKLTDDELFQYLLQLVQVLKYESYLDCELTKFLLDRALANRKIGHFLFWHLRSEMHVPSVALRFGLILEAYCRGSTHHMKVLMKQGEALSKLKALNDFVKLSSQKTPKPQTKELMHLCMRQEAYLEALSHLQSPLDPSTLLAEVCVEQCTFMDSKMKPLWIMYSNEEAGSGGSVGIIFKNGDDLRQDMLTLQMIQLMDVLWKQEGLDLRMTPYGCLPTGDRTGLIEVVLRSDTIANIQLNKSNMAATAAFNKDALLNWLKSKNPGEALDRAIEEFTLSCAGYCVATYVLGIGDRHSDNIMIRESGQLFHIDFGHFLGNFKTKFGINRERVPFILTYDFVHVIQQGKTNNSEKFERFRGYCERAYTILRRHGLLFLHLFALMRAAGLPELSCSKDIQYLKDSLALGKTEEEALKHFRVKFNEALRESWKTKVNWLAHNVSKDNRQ
Sequence of PI3K δ (P27986 whole entry partner, species assumed): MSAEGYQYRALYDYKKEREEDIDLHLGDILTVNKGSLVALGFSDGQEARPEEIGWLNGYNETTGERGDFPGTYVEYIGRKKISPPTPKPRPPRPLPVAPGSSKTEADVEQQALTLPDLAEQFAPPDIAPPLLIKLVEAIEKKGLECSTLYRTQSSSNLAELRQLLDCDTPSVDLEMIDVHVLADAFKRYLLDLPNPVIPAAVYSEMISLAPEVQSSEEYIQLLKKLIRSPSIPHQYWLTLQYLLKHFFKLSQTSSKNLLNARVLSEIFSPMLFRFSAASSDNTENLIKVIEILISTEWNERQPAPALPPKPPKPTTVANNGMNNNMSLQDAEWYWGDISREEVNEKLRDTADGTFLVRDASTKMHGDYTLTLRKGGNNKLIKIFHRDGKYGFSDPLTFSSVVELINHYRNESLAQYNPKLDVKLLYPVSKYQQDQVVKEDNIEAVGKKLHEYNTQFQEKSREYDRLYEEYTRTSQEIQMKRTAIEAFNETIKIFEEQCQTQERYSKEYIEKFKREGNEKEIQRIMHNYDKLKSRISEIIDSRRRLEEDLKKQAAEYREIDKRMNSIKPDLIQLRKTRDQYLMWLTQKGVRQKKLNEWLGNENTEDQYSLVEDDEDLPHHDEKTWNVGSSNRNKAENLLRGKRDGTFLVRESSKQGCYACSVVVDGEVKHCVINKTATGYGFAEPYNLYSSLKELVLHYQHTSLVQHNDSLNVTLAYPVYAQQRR
Sequence of PI3K α (P42336 whole entry, species assumed): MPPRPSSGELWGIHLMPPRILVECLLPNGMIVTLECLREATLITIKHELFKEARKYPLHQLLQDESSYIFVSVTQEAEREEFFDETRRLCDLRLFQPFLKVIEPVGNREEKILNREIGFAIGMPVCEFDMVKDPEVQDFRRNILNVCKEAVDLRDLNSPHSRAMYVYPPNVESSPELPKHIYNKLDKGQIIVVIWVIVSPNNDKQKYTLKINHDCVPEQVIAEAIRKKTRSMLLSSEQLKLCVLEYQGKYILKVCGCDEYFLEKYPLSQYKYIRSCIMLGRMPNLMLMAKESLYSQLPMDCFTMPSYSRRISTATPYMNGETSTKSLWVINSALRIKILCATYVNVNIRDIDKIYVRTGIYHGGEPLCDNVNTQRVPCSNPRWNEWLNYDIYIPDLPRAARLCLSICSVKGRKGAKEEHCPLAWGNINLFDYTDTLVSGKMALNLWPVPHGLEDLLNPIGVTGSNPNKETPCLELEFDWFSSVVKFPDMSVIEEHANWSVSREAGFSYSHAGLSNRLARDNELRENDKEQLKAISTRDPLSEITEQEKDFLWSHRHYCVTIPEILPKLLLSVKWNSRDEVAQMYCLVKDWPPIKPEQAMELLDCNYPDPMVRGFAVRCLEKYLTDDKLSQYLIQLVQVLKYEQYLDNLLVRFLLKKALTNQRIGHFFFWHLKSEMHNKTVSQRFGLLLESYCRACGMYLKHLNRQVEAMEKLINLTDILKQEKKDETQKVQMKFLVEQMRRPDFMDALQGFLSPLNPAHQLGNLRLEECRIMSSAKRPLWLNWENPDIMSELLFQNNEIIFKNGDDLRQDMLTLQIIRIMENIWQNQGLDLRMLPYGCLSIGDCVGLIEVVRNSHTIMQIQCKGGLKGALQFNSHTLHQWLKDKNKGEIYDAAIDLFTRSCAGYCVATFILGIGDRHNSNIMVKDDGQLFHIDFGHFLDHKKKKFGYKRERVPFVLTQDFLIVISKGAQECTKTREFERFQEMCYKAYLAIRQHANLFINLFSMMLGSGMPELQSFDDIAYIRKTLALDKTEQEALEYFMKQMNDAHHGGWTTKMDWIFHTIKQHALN
Sequence of PI3K α (P27986 whole entry partner, species assumed): as the sequence (P27986 whole entry partner, species assumed) above

pIC50 (PI3K α; read-out: PI3 Kinase Inhibition IC50 value at state isozyme, α): < 4.85
inhibition of PI3K γ compared with compound of formula (I) (in words) (PI3K γ): significantly less active
pIC50 (PI3K γ; read-out: PI3 Kinase Inhibition IC50 value at state isozyme, γ): 6.24
inhibition of PI3K δ compared with compound of formula (I) (in words) (PI3K δ): significantly less active
pIC50 (PI3K δ; read-out: PI3 Kinase Inhibition IC50 value at state isozyme, δ): 7.77
pIC50 (PI3K β): < 4.85
Compound: Nc1ncnc2c1c(-c1cc(O)cc(F)c1)nn2Cc1nc2cccc(C#CCOCCOCCO)c2c(=O)n1Cc1ccccc1C(F)(F)F [Compound (Ia), 2-((4-Amino-3-(3-fluoro-5-hydroxyphenyl)-1H-pyrazolo[3,4-d]pyrimidin-1-yl)methyl)-5-(3-(2-(2-hydroxyethoxy)ethoxy)prop-1-yn-1-yl)-3-(2-(trifluoromethyl)benzyl)quinazolin-4(3H)-one]
Cell Viability MTT Assay in d-U937 cells at 4 hr (d-U937 cells; 4 hr): −ve (−ve indicates a value of <30% inhibition at 10 μg/mL)
Cell Viability MTT Assay in d-U937 cells at 24 hr (d-U937 cells; 24 hr): −ve (−ve indicates a value of <30% inhibition at 10 μg/mL)

pIC50 (PI3K α; read-out: IC50 Values for PI3K inhibition at isozyme indicated, PI3K α): 6.19
pIC50 (PI3K γ; read-out: IC50 Values for PI3K inhibition at isozyme indicated, PI3K γ): 6.92
pIC50 (PI3K δ; read-out: IC50 Values for PI3K inhibition at isozyme indicated, PI3K δ): 8.24
Compound: COCCOCCOCC#Cc1cccc2nc(Cn3nc(-c4cccc(O)c4)c4c(N)ncnc43)n(Cc3ccccc3F)c(=O)c12 [Example 50, 2-((4-amino-3-(3-hydroxyphenyl)-1H-pyrazolo[3,4-d]pyrimidin-1-yl)methyl)-3-(2-fluorobenzyl)-5-(3-(2-(2-methoxyethoxy)ethoxy)prop-1-ynyl) quinazolin-4(3H)-one, reference compound]

Compound: C[C@@H]1C[C@H]2[C@@H]3CCC4=CC(=O)C=C[C@]4(C)[C@@]3(F)[C@@H](O)C[C@]2(C)[C@@]1(O)C(=O)CO [dexamethasone]
activity in cigarette smoke model (in words) [1]: inactive

Compound: CCC(=O)O[C@]1(C(=O)SCF)[C@H](C)C[C@H]2[C@@H]3C[C@H](F)C4=CC(=O)C=C[C@]4(C)[C@@]3(F)[C@@H](O)C[C@@]21C [fluticasone propionate, reference compound]
effect as monotherapy in cigarette smoke model (in words) [2]: lacks any significant effect
